Test results: US8921319B2, “Serine protease inhibitors” (The Medicines Company (Leipzig) GmbH, priority 2010, dated 2014)
Like-named read-outs stand apart in the source and are kept apart here.

What was measured:
plasmin [1] = molecular target: T1, plasmin (Homo sapiens (Human), UniProt P00747); assay: Enzyme assay, inhibition constant for human plasmin (chromogenic substrate, Dixon method); format: biochemical; conditions: 25° C., Tris HCl buffer pH 8.0, substrate Tos-Gly-Pro-Lys-pNA, mean of at least two measurements; read-out: Ki h Plasmin
Protocol: (§1) Reactions were started by addition of 50 μl of enzyme solution.
(§2) The Ki values are the mean of at least two measurements. Enzymes and substrates used are set out in Table 1 below: […]
Target sequence in this assay (P00747 581-810): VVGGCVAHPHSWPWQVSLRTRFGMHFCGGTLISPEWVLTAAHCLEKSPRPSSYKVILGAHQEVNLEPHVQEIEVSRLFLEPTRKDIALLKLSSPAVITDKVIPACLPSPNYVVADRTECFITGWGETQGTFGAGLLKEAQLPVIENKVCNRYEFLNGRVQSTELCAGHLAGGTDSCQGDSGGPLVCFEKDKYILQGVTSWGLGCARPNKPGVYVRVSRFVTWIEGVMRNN
Target sequence in this assay (P00747 97-580 partner): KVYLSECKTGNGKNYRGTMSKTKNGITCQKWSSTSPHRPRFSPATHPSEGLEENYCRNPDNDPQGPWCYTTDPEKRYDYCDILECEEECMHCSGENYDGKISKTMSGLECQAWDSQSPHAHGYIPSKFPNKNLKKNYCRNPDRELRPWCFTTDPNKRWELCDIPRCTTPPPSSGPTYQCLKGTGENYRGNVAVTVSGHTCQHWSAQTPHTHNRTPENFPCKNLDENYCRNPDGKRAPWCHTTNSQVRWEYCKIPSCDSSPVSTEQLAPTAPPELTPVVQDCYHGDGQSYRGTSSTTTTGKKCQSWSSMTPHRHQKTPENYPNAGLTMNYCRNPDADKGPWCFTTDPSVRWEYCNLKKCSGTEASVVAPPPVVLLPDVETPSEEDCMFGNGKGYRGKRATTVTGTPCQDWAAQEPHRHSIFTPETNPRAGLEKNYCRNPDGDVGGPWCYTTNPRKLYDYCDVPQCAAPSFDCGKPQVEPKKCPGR

plasma kallikrein = plasma kallikrein (Homo sapiens (Human), UniProt P03952); assay: Enzyme assay, inhibition constant for human plasma kallikrein (chromogenic substrate, Dixon method); format: biochemical; conditions: 25° C., Tris HCl buffer pH 8.0, substrate H-D-Pro-Phe-Arg-pNA, mean of at least two measurements; read-out: Ki PK
Sequence of plasma kallikrein (P03952 391-638): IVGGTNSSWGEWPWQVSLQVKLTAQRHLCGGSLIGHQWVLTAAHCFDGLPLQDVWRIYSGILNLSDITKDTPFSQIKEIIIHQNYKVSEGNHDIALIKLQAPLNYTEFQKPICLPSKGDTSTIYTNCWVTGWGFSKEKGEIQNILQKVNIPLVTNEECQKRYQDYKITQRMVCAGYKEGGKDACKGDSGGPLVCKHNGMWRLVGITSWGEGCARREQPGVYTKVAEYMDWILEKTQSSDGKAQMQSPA
Sequence of plasma kallikrein (P03952 20-390 partner): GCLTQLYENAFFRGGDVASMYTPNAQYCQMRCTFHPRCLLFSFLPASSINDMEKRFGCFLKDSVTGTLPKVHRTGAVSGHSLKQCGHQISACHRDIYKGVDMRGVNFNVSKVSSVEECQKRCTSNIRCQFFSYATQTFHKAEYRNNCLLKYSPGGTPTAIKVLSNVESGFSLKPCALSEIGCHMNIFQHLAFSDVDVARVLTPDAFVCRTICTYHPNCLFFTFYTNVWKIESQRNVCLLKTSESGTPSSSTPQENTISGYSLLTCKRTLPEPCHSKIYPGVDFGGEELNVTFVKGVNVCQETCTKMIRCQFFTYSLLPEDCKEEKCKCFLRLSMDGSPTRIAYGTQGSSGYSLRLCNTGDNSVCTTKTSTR
Protocol: as §1, §2

thrombin = thrombin (Bos taurus (Bovine), UniProt P00735); assay: Enzyme assay, inhibition constant for thrombin (chromogenic substrate, Dixon method); format: biochemical, Rind; conditions: substrate CH3SO2-D-Cha-Gly-Arg-pNA, mean of at least two measurements
Protocol: as §1, §2

Factor Xa (human) = Factor Xa (human) (Homo sapiens (Human), UniProt P00742); assay: Enzyme assay, inhibition constant for factor Xa (chromogenic substrate, Dixon method); format: biochemical; conditions: read-out: Ki FXa
Sequence of Factor Xa (human) (P00742 235-488): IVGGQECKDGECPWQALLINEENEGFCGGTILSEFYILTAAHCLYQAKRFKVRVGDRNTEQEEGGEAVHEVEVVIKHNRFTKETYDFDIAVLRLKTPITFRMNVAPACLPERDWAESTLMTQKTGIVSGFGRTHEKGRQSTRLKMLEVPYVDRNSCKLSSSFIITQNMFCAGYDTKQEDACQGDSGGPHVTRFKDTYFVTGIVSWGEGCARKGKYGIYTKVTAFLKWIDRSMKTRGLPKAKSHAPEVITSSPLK
Sequence of Factor Xa (human) (P00742 41-179 partner): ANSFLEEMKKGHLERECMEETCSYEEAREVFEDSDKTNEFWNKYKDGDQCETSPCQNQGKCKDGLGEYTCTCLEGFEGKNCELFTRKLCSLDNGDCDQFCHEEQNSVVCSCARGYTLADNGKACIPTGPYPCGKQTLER
Protocol: as §1, §2

plasmin [2] = molecular target: T1, plasmin; conditions: background, literature; read-out: Ki / inhibition constant for plasmin; cited from earlier work
Target sequence in this assay (P00747 581-810, species assumed): as the sequence (P00747 581-810) above
Target sequence in this assay (P00747 97-580 partner, species assumed): as the sequence (P00747 97-580 partner) above

trypsin = conditions: background; cited from earlier work
[3] = cited from earlier work
[4] = substrate CH3OCO-D-Cha-Gly-Arg-pNA, mean of at least two measurements

| Compound | Ki (plasmin [1]) | Ki (plasma kallikrein) | Ki (thrombin) | Ki (Factor Xa (human); [4]) | Ki (Factor Xa (human)) | Ki (plasmin [2]) | Ki (trypsin) | risk of anaphylactic shock ([3]; first administration) | risk of anaphylactic shock ([3]; repeated administration within 200 days) |
| --- | --- | --- | --- | --- | --- | --- | --- | --- | --- |
| N=C(N)c1ccc(CNC(=O)[C@@H]2Cc3cn(nn3)Cc3cccc(c3)Cn3cc(nn3)C[C@@H](NS(=O)(=O)Cc3ccccc3)C(=O)N2)cc1 [Inhibitor 1] | 0.77 nM | 2.4 nM | 4300 nM | 206 nM | – | – | – | – | – |
| N=C(N)c1ccc(CNC(=O)[C@@H]2Cc3cn(nn3)Cc3cccc(n3)Cn3cc(nn3)C[C@@H](NS(=O)(=O)Cc3ccccc3)C(=O)N2)cc1 [Inhibitor 2] | 2.2 nM | 10.1 nM | 4560 nM | 1860 nM | – | – | – | – | – |
| N=C(N)c1ccc(CNC(=O)[C@@H]2Cc3ccc(cc3)CNC(=O)Cc3cccc(c3)CC(=O)NCc3ccc(cc3)C[C@@H](NS(=O)(=O)Cc3ccccc3)C(=O)N2)cc1 [Inhibitor 3] | – | 550 nM | 3000 nM | 5700 nM | – | – | – | – | – |
| N=C(N)c1ccc(CNC(=O)[C@@H]2Cc3ccc(cc3)CNC(=O)Cc3ccc(cc3)CC(=O)NCc3ccc(cc3)C[C@@H](NS(=O)(=O)Cc3ccccc3)C(=O)N2)cc1 [Inhibitor 4] | – | 868 nM | 6520 nM | 9370 nM | – | – | – | – | – |
| N=C(N)c1ccc(CNC(=O)[C@@H]2Cc3cccc(c3)CNC(=O)Cc3cccc(c3)CC(=O)NCc3cccc(c3)C[C@@H](NS(=O)(=O)Cc3ccccc3)C(=O)N2)cc1 [Inhibitor 5] | – | 17.4 nM | 26.8 nM | 42.1 nM | – | – | – | – | – |
| N=C(N)c1ccc(CNC(=O)[C@@H]2Cc3cccc(c3)CNC(=O)Cc3ccc(cc3)CC(=O)NCc3cccc(c3)C[C@@H](NS(=O)(=O)Cc3ccccc3)C(=O)N2)cc1 [Inhibitor 6] | – | 136 nM | 45.4 nM | – | 152 nM | – | – | – | – |
| N=C(N)c1ccc(CNC(=O)[C@@H]2Cc3cccc(c3)CNC(=O)Cc3ccccc3CC(=O)NCc3cccc(c3)C[C@@H](NS(=O)(=O)Cc3ccccc3)C(=O)N2)cc1 [Inhibitor 7] | – | 8.9 nM | 575 nM | 103 nM | – | – | – | – | – |
| N=C(N)c1ccc(CNC(=O)[C@@H]2Cc3cccc(c3)CNC(=O)CN3CCN(CC3)CC(=O)NCc3cccc(c3)C[C@@H](NS(=O)(=O)Cc3ccccc3)C(=O)N2)cc1 [Inhibitor 8] | – | 31.6 nM | 9.1 nM | 26.3 nM | – | – | – | – | – |
| N=C(N)c1ccc(CNC(=O)[C@@H]2Cc3ccc(cc3)CNC(=O)CN3CCN(CC3)CC(=O)NCc3ccc(cc3)C[C@@H](NS(=O)(=O)Cc3ccccc3)C(=O)N2)cc1 [Inhibitor 9] | – | 493 nM | 2120 nM | 3470 nM | – | – | – | – | – |
| N=C(N)c1ccc(CNC(=O)[C@@H]2Cc3ccc(cc3)OCCCCOc3ccc(cc3)C[C@@H](NS(=O)(=O)Cc3ccccc3)C(=O)N2)cc1 [Inhibitor 11] | 1.9 nM | 34.2 nM | 510 nM | 2010 nM | – | – | – | – | – |
| N=C(N)c1ccc(CNC(=O)[C@@H]2CCCCNC(=O)c3cccc(c3)C(=O)NCCCC[C@@H](NS(=O)(=O)Cc3ccccc3)C(=O)N2)cc1 [Inhibitor 12] | 38 nM | 18 nM | 187 nM | 376 nM | – | – | – | – | – |
| N=C(N)c1ccc(CNC(=O)[C@@H]2CCC(=O)NCc3cccc(c3)CNC(=O)CC[C@@H](NS(=O)(=O)Cc3ccccc3)C(=O)N2)cc1 [Inhibitor 13] | – | 25 nM | 2020 nM | 3430 nM | – | – | – | – | – |
| N=C(N)c1ccc(CNC(=O)[C@@H]2Cc3cn(nn3)Cc3ccc(cc3)Cn3cc(nn3)C[C@@H](NS(=O)(=O)Cc3ccccc3)C(=O)N2)cc1 [Inhibitor 14] | 5.4 nM | 12 nM | 219 nM | 600 nM | – | – | – | – | – |
| N=C(N)c1ccc(CNC(=O)[C@@H]2Cc3ccc(cc3)NC(=O)CN3CCN(CC3)CC(=O)Nc3ccc(cc3)C[C@@H](NS(=O)(=O)Cc3ccccc3)C(=O)N2)cc1 [Inhibitor 15] | 0.68 nM | 320 nM | 8400 nM | > 10000 nM | – | – | – | – | – |
| N=C(N)c1ccc(CNC(=O)[C@@H]2CCN2C(=O)[C@H](NCC(=O)O)C2CCCCC2)cc1 [melagatran] | – | – | – | – | – | 700 nM | – | – | – |
| aprotinin | – | – | – | – | – | – | 0.1 nM | < 0.1% | 4-5% |
